Experimental data from article PMC9655037, “Alternation of Organ-Specific Exposure in LPS-Induced Pneumonia Mice after the Inhalation of Tetrandrine Is Governed by Metabolizing Enzyme Suppression and Lysosomal Trapping” (International Journal of Molecular Sciences, 2022).
Several values for one entry are separate records, joined by “and”; a condition that tells them apart may be missing. Equal values may be shown once.

Assay: Tissue distribution of TET after a single i.t. administration in normal and LPS-treated mice
Conditions: for AUC(0-inf) / Cmax / MRT / Tmax / half-life / Kp / AUC(0-t): BALB/c, mouse; for AUC(0-inf) / Cmax / MRT / Tmax / half-life / AUC(0-t): inhaled or intranasal; for AUC(0-inf) / Cmax / MRT / Tmax / half-life / Kp / AUC(0-t) / Kp (AUC in tissue divided by AUC in blood): 15 mg/kg, 15 mg/kg i.t.; for Kp: other: intratracheal (i.t.), Kp (AUC in tissue divided by AUC in blood)
Procedure: The different tissue distribution characteristics of TET in normal and pneumonia model mice via i.t. delivery were investigated. Thirty BALB/c mice were randomly divided into ten groups (n = 3 for each group). Five groups of mice were intratracheally injected with 15 mg/kg TET (dissolved in 22.5 mg/mL aspartic acid solution) as control groups, and the other five groups received i.t. administration of 15 mg/kg TET 6 h after i.t. injection of 50 μL LPS (5 mg/mL) as model groups. One control group and one model group were sacrificed simultaneously at the set time points of 2, 4, 8, 24, and 144 h after the administration of TET. After a cardiac puncture to obtain blood samples, tissue samples including heart, liver, spleen, lung, kidney, stomach, intestine, and brain were immediately harvested and all the tissues were thoroughly rinsed in ice physiological saline. All the tissue samples were weighed and stored with blood samples at −40 °C for LC-MS/MS analysis.
Pharmacokinetic parameters including t1/2, AUC(0-t), AUC(0-∞), and MRT were calculated using WinNonlin 7.0 (Pharsight, CA) by the non-compartmental model. Initial plasma concentration post i.v. (C0-i.v.) was extrapolated from the first three points of the logarithmic plasma concentration. The area under the blood concentration–time curve from t = 0 to infinity (AUCinf) was estimated using the linear trapezoidal rule. Blood clearance (CL) was calculated as the i.v. dose divided by AUCinf. Apparent steady-state distribution volume (Vss) was determined by the clearance multiplied by mean residence time. The distribution volume in the elimination phase (Vz) was determined by the clearance divided by the first-order rate constant of the terminal elimination phase (λz). The tissue partition ratio (Kp) of each tissue was calculated as Equation (1). (1) Kp=AUC(0−∞,tissue)/AUC(0−∞,plasma)

Structure (SMILES): COc1ccc2cc1Oc1ccc(cc1)C[C@H]1c3cc(c(OC)cc3CCN1C)Oc1c(OC)c(OC)cc3c1[C@H](C2)N(C)CC3 [TET, Tetrandrine]
- AUC(0-inf) (kidney, normal mice): 8160 ± 422 µg·h/mL
- Cmax (kidney, LPS-treated mice): 112 ± 11.5 µg/mL
- Cmax (kidney, normal mice): 107 ± 16.6 µg/mL
- MRT (kidney, LPS-treated mice): 101 ± 30 h
- MRT (kidney, normal mice): 80.1 ± 16.6 h
- Tmax (kidney, LPS-treated mice): 5.33 ± 2.31 h
- Tmax (kidney, normal mice): 3.33 ± 1.15 h
- half-life (kidney, t1/2, LPS-treated mice): 77.8 ± 18.1 h
- half-life (kidney, t1/2, normal mice): 63.4 ± 8.09 h
- Kp (kidney, LPS-treated mice, kidney): 36.2 ± 3.83
- Kp (kidney, normal mice, kidney): 37.5 ± 5.7
- AUC(0-inf) (liver, LPS-treated mice): 7430 ± 632 µg·h/mL
- AUC(0-inf) (liver, normal mice): 5480 ± 237 µg·h/mL
- Cmax (liver, LPS-treated mice): 76.3 ± 7.02 µg/mL
- Cmax (liver, normal mice): 83.3 ± 9.29 µg/mL
- MRT (liver, LPS-treated mice): 82.1 ± 15.6 h
- MRT (liver, normal mice): 53.9 ± 8.29 h
- Tmax (liver, LPS-treated mice): 3.33 ± 1.15 h
- Tmax (liver, normal mice): 4 h
- half-life (liver, t1/2, LPS-treated mice): 69.3 ± 14.8 h
- half-life (liver, t1/2, normal mice): 47.5 ± 5.47 h
- Kp (liver, LPS-treated mice, liver): 27 ± 1.72
- Kp (liver, normal mice, liver): 28 ± 3.49
- AUC(0-t) (lung, LPS-treated mice): 10000 µg·h/mL
- AUC(0-inf) (lung, normal mice): 5300 ± 721 µg·h/mL
- Cmax (lung, LPS-treated mice): ≥ 96.2 µg/mL
- Cmax (lung, normal mice): 60.3 ± 3.21 µg/mL
- MRT (lung, normal mice): 78.3 ± 24.5 h
- Tmax (lung, LPS-treated mice): ≥ 144 h
- Tmax (lung, normal mice): 13.3 ± 9.24 h
- half-life (lung, t1/2, normal mice): 65.1 ± 18.3 h
- Kp (lung, LPS-treated mice, lung): 45.8 ± 6.49
- Kp (lung, normal mice, lung): 24.7 ± 6.06
- Kp (muscle / blood, normal mice, muscle): 2
- AUC(0-inf) (muscle, LPS-treated mice): 674 ± 240 µg·h/mL
- AUC(0-inf) (muscle, normal mice): 410 ± 80.1 µg·h/mL
- Cmax (muscle, LPS-treated mice): 7.51 ± 2.11 µg/mL
- Cmax (muscle, normal mice): 6.12 ± 0.44 µg/mL
- MRT (muscle, LPS-treated mice): 101 ± 44.4 h
- MRT (muscle, normal mice): 57.7 ± 7.81 h
- Tmax (muscle, LPS-treated mice): 6.67 ± 2.31 h
- Tmax (muscle, normal mice): 4 ± 3.16 h
- half-life (muscle, t1/2, LPS-treated mice): 78.8 ± 31.3 h
- half-life (muscle, t1/2, normal mice): 49.2 ± 4.06 h
- Kp (muscle, LPS-treated mice, muscle): 2.2 ± 0.31
- AUC(0-inf) (spleen, LPS-treated mice): 16000 µg·h/mL
- AUC(0-inf) (spleen, normal mice): 11300 µg·h/mL
- Cmax (spleen, LPS-treated mice): 89.7 ± 10.7 µg/mL
- Cmax (spleen, normal mice): 89.7 ± 7.09 µg/mL
- MRT (spleen, LPS-treated mice): 157 ± 29.5 h
- MRT (spleen, normal mice): 112 ± 34.7 h
- Tmax (spleen, LPS-treated mice): 17.3 ± 11.5 h
- Tmax (spleen, normal mice): 12 ± 10.6 h
- half-life (spleen, t1/2, LPS-treated mice): 111 ± 18.3 h
- half-life (spleen, t1/2, normal mice): 83.8 ± 22.7 h
- Kp (spleen, LPS-treated mice, spleen): 43.3 ± 6.88
- Kp (spleen, normal mice, spleen): 45.7 ± 6.62
- Kp (stomach / blood, LPS-treated mice, stomach): 6.1
- Kp (stomach / blood, normal mice, stomach): 5.3
- AUC(0-t) (stomach, LPS-treated mice): 1340 ± 192 µg·h/mL
- AUC(0-inf) (stomach, LPS-treated mice): 1640 ± 323 µg·h/mL
- AUC(0-inf) (stomach, normal mice): 1120 ± 207 µg·h/mL
- Cmax (stomach, LPS-treated mice): 27.2 ± 9.32 µg/mL
- Cmax (stomach, normal mice): 22.3 ± 12.4 µg/mL
- MRT (stomach, LPS-treated mice): 73.3 ± 17.7 h
- MRT (stomach, normal mice): 70 ± 14 h
- Tmax (stomach, LPS-treated mice): 3.33 ± 1.15 h
- Tmax (stomach, normal mice): 4.67 ± 3.06 h
- half-life (stomach, t1/2, LPS-treated mice): 61.4 ± 13 h
- half-life (stomach, t1/2, normal mice): 64 ± 16.5 h
- Kp (AUC in tissue divided by AUC in blood) (LPS-treated mice, adipose): 2.57 ± 0.62
- Kp (AUC in tissue divided by AUC in blood) (LPS-treated mice, brain): 0.59 ± 0.17
- Kp (AUC in tissue divided by AUC in blood) (LPS-treated mice, heart): 4.27 ± 1.59
- Kp (AUC in tissue divided by AUC in blood) (LPS-treated mice, stomach): 6.13 ± 0.87
- lung AUC ratio, acutely inflamed vs normal mice (TET inhalation (i.t.) administration): 2.32
- increase in systemic blood exposure (blood AUC ratio), LPS group vs normal/saline group (i.t. route): ~ 1.25 fold and 1.25 fold
- Kp (AUC in tissue divided by AUC in blood) (normal mice, adipose): 2.39 ± 0.40
- Kp (AUC in tissue divided by AUC in blood) (normal mice, brain): 0.97 ± 0.39
- Kp (AUC in tissue divided by AUC in blood) (normal mice, heart): 5.05 ± 0.38
- Kp (AUC in tissue divided by AUC in blood) (normal mice, intestine): 8.35 ± 0.67
- Kp (AUC in tissue divided by AUC in blood) (normal mice, muscle): 2.04 ± 0.38
- Kp (AUC in tissue divided by AUC in blood) (normal mice, stomach): 5.29 ± 0.66
